Reference: article PMC12030253, “New Temporin A Analogues Modified in Positions 1 and 10—Synthesis and Biological Studies” (Pharmaceutics, 2025)
Values after ≈ are worked out from the molar mass of the structure shown. Values joined by “and” are separate entries in the source; they are usually repeats but may differ in a detail not shown here. Equal values may be shown once. Read-outs that look alike come from different tables or passages of the source. Square brackets hold non-standard residues; d marks the D form. Ends that are not written are not given here. Peptide text beside a SMILES is read from it. Phe(4-F) = N[C@@H](Cc1ccc(F)cc1)C(=O)O

Assays:
[1] = system: Bacillus subtilis NBIMCC 3562; set-up: method as in PMID 38931840; details: 30 µg/disk, positive control with DTA; cited from earlier work
[2] = system: Bacillus subtilis NBIMCC 3562; type: cell-based; details: 30 µg/disk, positive control on the plate of the peptide
Protocol: (§1) In order to evaluate the antimicrobial activity, the parent peptide Temporin A and newly synthesized analogues were tested against model strains Escherichia coli NBIMCC 8785, Pseudomonas aeruginosa NBIMCC 3700, Bacillus subtilis NBIMCC 3562, Arthrobacter oxydans NBIMCC 9333, and Candida albicans NBIMCC 74. The strains were purchased from the National Bank for Industrial Microorganisms and Cell Cultures (NBIMCC, Sofia, Bulgaria). They were cultured as follows: • E. coli 8785 in Luria–Bertani (LB, HiMedia, Mumbai, India) agar medium; • B. subtilis 3562 in nutrient broth (NB, HiMedia, Mumbai, India) agar medium; • P. aeruginosa 3700 and A. oxydans 9333 in Meat Peptone agar (MPA) medium; • C. albicans 74 in Yeast Mold (YM) agar medium.
(§2) The cultivation was performed in an incubator shaker ES-20/60 (Biosan, Riga, Latvia), set for B. subtilis 3562, A. oxydans 9333, and C. albicans 74 at 30 °C, and for E. coli 8785 and P. aeruginosa 3700 at 37 °C, for 24 h with 120 rpm. The microbial cultures were then brought to a 0.5 McFarland turbidity using a Grant-bio DEN-1B densitometer (Grant Instruments, Nether Alderley, United Kingdom).
(§3) The disk diffusion method was employed as an additional technique in order to determine the percentage of inhibition of the synthesized peptides compared to a chosen antibiotic, used as a positive control. The antibiotics used were gentamicin (10 µg/disk), chloramphenicol (30 µg/disk), and itraconazole (10 µg/disk). In total, 100 μL from each microbial culture was spread on LB/NB/MPA/YM agar plates. The plates were then incubated at the appropriate temperature for a period of 30 min intended for the penetration of the culture into the agar. […] The antimicrobial activity was assessed by measuring the diameter of the inhibition zones in mm. […] In addition, the percentage of inhibition was calculated as the correlation between the inhibition zone of the peptide (measured in mm) over the inhibition zone of the antibiotic (measured in mm) multiplied by 100.

MCF-7 cells = type: cell-based, human; details: 72 h
Protocol: (§4) Mouse embryonic fibroblasts (BALB 3T3 clone A31), human breast epithelial cells (MCF-12F), luminal A breast cancer (MCF-7), and basal B-type breast cancer (MDA-MB-231) were used in in vitro experiments. Cell cultures were purchased from the American Type Cultures Collection (ATCC, Manassas, VA, USA). Cells were cultured in a growth medium (DMEM-4.5 g/L glucose), 10% FBS, and antibiotics (Sigma-Aldrich, Schnelldorf, Germany). Cells were incubated at 5% CO2, 37 °C, and 95% humidity. Plastic flasks (75 cm^2) were used for the cell culture (Biologix, Lenexa, KS, USA).
(§5) The antiproliferative activity of the peptide analogues was determined by an MTT assay. Normal epithelial cells (MCF-12F) and tumor cell lines (MCF-7 and MDA-MB-231) were used in the in vitro experiments. Cells were plated at 1 × 10^3 cells/100 µL/well in 96-well microplates. […] The optical density of the formazan was measured at λ = 540 nm using a microplate reader. Antiproliferative activities were expressed as IC50 values. The statistical analysis of the results was performed using one-way ANOVA, followed by Bonferroni’s post hoc test.

MDA-MB-231 cells = type: cell-based, human; details: 72 h
Protocol: as §4, §5

BALB 3T3 cells = test: in vitro; type: cell-based, Mouse
Protocol: as §4
(§6) The safety testing was performed according to the OECD Guidelines for the Testing of Chemicals, Section 4, Test No. 432. Mouse embryonic fibroblasts (BALB 3T3, clone A31) were used to perform the in vitro cytotoxicity and phototoxicity tests. Cells were plated at 1 × 10^4 cells per well in 96-well cell culture plates. The cells were incubated in a thermostat for 24 h before the test peptide analogues were added. […] Working concentrations (4–1000 µM) of peptides were obtained by diluting the stock solution with a culture medium. The phototoxicity test was performed using 96-well microplates. The microplates were irradiated with a dose of 2.4 J/cm^2 using a solar light simulator Helios-iO (SERIC Ltd., Tokyo, Japan). After treatment with a neutral red (NR) medium (NR dissolved in culture medium, 34 µg/mL), washing, and application of the NR Desorb solution (freshly prepared 49 parts water + 50 parts ethanol + 1 part acetic acid), the absorption was measured on a microplate reader at a wavelength of 540 nm. Cytotoxicity was expressed as CC50 values.

in vitro = type: cell-based, Mouse; details: mouse
Protocol: as §4, §6

MCF-12F cells = type: cell-based, human; details: for IC50: 72 h
Protocol: as §4
The antiproliferative activity of the peptide analogues was determined by an MTT assay. Normal epithelial cells (MCF-12F) and tumor cell lines (MCF-7 and MDA-MB-231) were used in the in vitro experiments. Cells were plated at 1 × 10^3 cells/100 µL/well in 96-well microplates. After 24 h of incubation in a thermostat under standard conditions, the cells were treated with test compounds for 72 h. The optical density of the formazan was measured at λ = 540 nm using a microplate reader. Antiproliferative activities were expressed as IC50 values. The statistical analysis of the results was performed using one-way ANOVA, followed by Bonferroni’s post hoc test.

[3] = system: Pseudomonas aeruginosa NBIMCC 3700; type: cell-based
Protocol: as §1, §2
(§7) The broth dilution method was employed to estimate the MIC of the peptides. In total, 10 mg/mL peptide stock solutions in 10% EtOH/H2O were prepared. Microbial culture in the corresponding media and peptide solutions in a concentration range from 0 to 320 µg/mL (concentration levels: 0, 10, 20, 40, 80, 160, and 320 µg/mL) were placed in 96-well U-shaped-bottom polystyrene plates (Deltalab S.L., Barcelona, Spain). In addition, 10% EtOH/H2O control, diluted in the nutrient medium, was added in separate wells. Furthermore, the microplates were incubated under aerobic conditions at the desired temperature for 24 h. […] The absorbance was measured at 630 nm (microplate reader PKL PPC 142, Italy). In total, 10 μL solution with concentrations greater than or equal to the MIC value was placed on the corresponding solid nutrient medium in order to evaluate a potential minimum bactericidal concentration (MBC) and minimal fungicidal concentration (MFC). Furthermore, the Petri dishes were incubated for 24 h at either 30 or 37 °C. Every experiment was carried out three times.

[4] = system: Bacillus subtilis NBIMCC 3562; type: cell-based
Protocol: as §1, §2, §7

[5] = system: Arthrobacter oxydans NBIMCC 9333; type: cell-based; details: 24 h
Protocol: as §1, §2, §7

[6] = system: Arthrobacter oxydans NBIMCC 9333; set-up: method as in PMID 38931840; details: 10 µg/disk, positive control with DTA; cited from earlier work
[7] = system: Pseudomonas aeruginosa NBIMCC 3700; set-up: method as in PMID 38931840; details: 10 µg/disk, positive control with DTA; cited from earlier work
[8] = system: Pseudomonas aeruginosa NBIMCC 3700; type: cell-based; details: 10 µg/disk, positive control on the plate of the peptide
Protocol: as §1, §2, §3

[9] = system: Escherichia coli NBIMCC 8785; type: cell-based; details: 10 µg/disk, positive control on the plate of the peptide
Protocol: as §1, §2, §3

[10] = system: Escherichia coli NBIMCC 8785; set-up: method as in PMID 38931840; details: 10 µg/disk, positive control with DTA; cited from earlier work
[11] = system: Escherichia coli NBIMCC 8785; test: Broth dilution MIC, E. coli; type: cell-based; set-up: key: NI—no inhibition observed; details: 0-320 µg/mL, 24 h
Protocol: as §1, §2
(§8) The broth dilution method was employed to estimate the MIC of the peptides. In total, 10 mg/mL peptide stock solutions in 10% EtOH/H2O were prepared. […] The absorbance was measured at 630 nm (microplate reader PKL PPC 142, Italy). […]

[12] = system: Candida albicans NBIMCC 74; test: Broth dilution MIC, C. albicans; type: cell-based; set-up: key: NI—no inhibition observed; details: 0-320 µg/mL, 24 h
Protocol: as §1, §2, §8

[13] = broth dilution, 0-320 µg/mL, 24 h

Compound | IC50 (MCF-7 cells) [µM] | IC50 (MDA-MB-231 cells) [µM] | PIF (Photo-Irritation Factor) (BALB 3T3 cells) | CC50 (in vitro; Mean CC50 ± SD +Irr) [µM] | CC50 (in vitro; Mean CC50 ± SD −Irr) [µM] | IC50 (MCF-12F cells) [µM] | MIC P. aeruginosa 3700 ([3]; NBIMCC 3700, 24 h) [µg/mL] | MIC B. subtilis 3562 ([4]; NBIMCC 3562, 24 h) [µg/mL] | MIC A. oxydans 9333 [5] [µg/mL] | MIC E. coli 8785 [11] | MIC C. albicans 74 [12] | further results
O=C(N[C@H](CO)[C@H](O)c1ccc([N+](=O)[O-])cc1)C(Cl)Cl [Chloramphenicol, chloramphenicol] |  |  |  |  |  |  |  |  |  |  |  | Inhibition zone B. subtilis 3562, antibiotic control [1]: 26 mm; Inhibition zone B. subtilis 3562, antibiotic control [2]: 24 mm and 27 mm and 28 mm
CC[C@H](C)[C@H](NC(=O)CNC(=O)[C@H](CO)NC(=O)[C@H](CC(C)C)NC(=O)[C@@H](NC(=O)[C@H](CCCNC(=N)N)NC(=O)CNC(=O)[C@@H](NC(=O)[C@H](CC(C)C)NC(=O)[C@@H]1CCCN1C(=O)[C@H](CC(C)C)NC(=O)[C@@H](N)Cc1ccc(F)cc1)[C@@H](C)CC)C(C)C)C(=O)N[C@@H](CC(C)C)C(N)=O [DT4F, Phe(4F)-LPLIGRVLSGILNH2] (H-[Phe(4-F)]LPLIGRVLSGIL-NH2) | 20.3 ± 0.6 | 32 ± 1.43 | 1.4 | 40 ± 0.78 | 55.4 ± 4.64 | 41.8 ± 1.64 | 80 (≈ 56.5 µM) | 80 (≈ 56.5 µM) | 160 (≈ 113 µM) |  |  | 
CNC(C)C1CCC(N)C(OC2C(N)CC(N)C(OC3OCC(C)(O)C(NC)C3O)C2O)O1 (centres unmarked) [Gentamicin, gentamicin] |  |  |  |  |  |  |  |  |  |  |  | Inhibition zone A. oxydans 9333, antibiotic control [6]: 18 mm; Inhibition zone P. aeruginosa 3700, antibiotic control [7]: 17 mm; Inhibition zone P. aeruginosa 3700, antibiotic control [8]: 17 mm and 18 mm and 16 mm; Inhibition zone E. coli 8785, antibiotic control [9]: 17.5 mm and 16.5 mm and 17 mm; Inhibition zone E. coli 8785, antibiotic control [10]: 18 mm
FLPLIGRVLTGIL-NH2 [DTThr, FLPLIGRVL-T-GILNH2] | 98.6 ± 1.19 | 136 ± 3.61 | 1.0 | 188 ± 3.55 | 183 ± 2.91 | 165 ± 2.21 | 320 | 160 | 320 |  |  | 
FLPLIGRVLYGIL-NH2 [DTTyr10, FLPLIGRVL-Y-GILNH2] | 64.5 ± 3.93 | 328.5 ± 2.62 |  | > 1000 | > 1000 | 251 ± 11.8 |  |  |  | NI ** | NI ** | Antiproliferative activity in MCF-12F at a single concentration (MCF-12F cells; at 64.51 µM, non-tumorigenic cells): no antiproliferative activity was observed; MIC P. aeruginosa 3700 [3, 13]: 320 µg/mL; MIC B. subtilis 3562 [4, 13]: 320 µg/mL; MIC A. oxydans 9333 ([5]; broth dilution, 0-320 µg/mL): 320 µg/mL
YLPLIGRVLSGIL-NH2 [DTTyr1, Y-LPLIGRVLSGILNH2] | 216 ± 10.3 | 334 ± 3.72 | 1.0 | 671 ± 12.2 | 669 ± 13.4 | 318 ± 9.79 | 320 | 160 | 320 | NI ** | NI ** | 
